Among the data in the RepoRT retention time repository (doi:10.1016/j.jchromb.2020.122105) are LC retention time values, retold here.

Conditions in all cases: stereoisomer not certain
Series [1] can be described thus: RP, Waters CORTECS T3, 100 × 2.1 mm, 2.7 µm, 0.3 mL/min, estimated dead time 0.73 min; A: water + 0.1% formic acid, pH 3; B: methanol + 0.1% formic acid, pH 3; gradient (min/%B) 0/5 5/5 25/100 30/100 30.1/5 35/5.
Series [2] in a line: RP, Waters CORTECS T3, 100 × 2.1 mm, 2.7 µm, 0.3 mL/min, estimated dead time 0.73 min; A: water + 0.1% formic acid, pH 3; B: methanol + 0.1% formic acid, pH 3; gradient (min/%B) 0/0 5/0 25/100 30/100 30.1/0 35/0.
A short description of series [3]: RP, Waters CORTECS T3, 100 × 2.1 mm, 2.7 µm, 0.2 mL/min, estimated dead time 1.1 min; A: water + 0.1% formic acid, pH 3; B: methanol + 0.1% formic acid, pH 3; gradient (min/%B) 0/0 1/0 6/5 30/100 35/100 35.1/0 40/0.
The nature of series [4]: RP, Waters CORTECS T3, 100 × 2.1 mm, 2.7 µm, 0.1 mL/min, estimated dead time 2.2 min; A: water + 0.1% formic acid, pH 3; B: methanol + 0.1% formic acid, pH 3; gradient (min/%B) 0/0 1/0 6/5 30/100 35/100 35.1/0 40/0.
Series [5] can be described thus: RP, Waters CORTECS T3, 100 × 2.1 mm, 2.7 µm, 0.15 mL/min, estimated dead time 1.5 min; A: water + 0.1% formic acid, pH 3; B: methanol + 0.1% formic acid, pH 3; gradient (min/%B) 0/0 1/0 6/5 30/100 35/100 35.1/0 40/0.
Series [6] can be described thus: RP, Waters CORTECS T3, 100 × 2.1 mm, 2.7 µm, 0.3 mL/min, estimated dead time 0.73 min; A: water + 0.1% formic acid, pH 3; B: methanol + 0.1% formic acid, pH 3; gradient (min/%B) 0/0 1/0 6/5 30/100 35/100 35.1/0 40/0.
A short description of series [7]: RP, Waters CORTECS T3, 100 × 2.1 mm, 2.7 µm, 0.25 mL/min, estimated dead time 0.88 min; A: water + 0.1% formic acid, pH 3; B: methanol + 0.1% formic acid, pH 3; gradient (min/%B) 0/0 1/0 6/5 30/100 35/100 35.1/0 40/0.
Series [8] can be described thus: RP, Waters CORTECS T3, 100 × 2.1 mm, 2.7 µm, 0.1 mL/min, estimated dead time 2.2 min; A: water + 0.1% formic acid, pH 3; B: methanol + 0.1% formic acid, pH 3; gradient (min/%B) 0/5 5/5 25/95 25.1/100 35/100 35.1/5 45/5.
Series [9] is described as follows: RP, Waters CORTECS T3, 100 × 2.1 mm, 2.7 µm, 0.3 mL/min, estimated dead time 0.73 min; A: water + 0.1% formic acid, pH 3; B: methanol + 0.1% formic acid, pH 3; gradient (min/%B) 0/5 5/5 25/95 25.1/100 35/100 35.1/5 45/5.
Series [10] can be described thus: RP, Waters ACQUITY UPLC BEH C18, 100 × 2.1 mm, 1.7 µm, 0.1 mL/min, estimated dead time 2.2 min; A: water + 0.1% formic acid, pH 3; B: methanol + 0.1% formic acid, pH 3; gradient (min/%B) 0/5 5/5 25/100 30/100 30.1/5 35/5.
Series [11] can be described thus: RP, Waters ACQUITY UPLC BEH C18, 100 × 2.1 mm, 1.7 µm, 0.1 mL/min, estimated dead time 2.2 min; A: water + 0.1% formic acid, pH 3; B: methanol + 0.1% formic acid, pH 3; gradient (min/%B) 0/5 5/5 25/95 25.1/100 35/100 35.1/5 45/5.
Experiment in series [12]: as above
The source holds these as a separate data set.

A short description of series [13]: RP, Waters ACQUITY UPLC BEH C18, 100 × 2.1 mm, 1.7 µm, 0.1 mL/min, estimated dead time 2.2 min; A: water + 0.045% formic acid + 0.11% ammonium hydroxide, pH 7; B: methanol; gradient (min/%B) 0/5 5/5 25/95 25.1/100 35/100 35.1/5 45/5.
Series [14] can be described thus: HILIC, Thermo Scientific Accucore HILIC, 100 × 2.1 mm, 2.6 µm, 0.5 mL/min, estimated dead time 0.44 min; A: water + 0.1% formic acid + 10 mM ammonium formate, pH 3; B: 5% water + 95% acetonitrile + 0.1% formic acid + 10 mM ammonium formate, pH 3; gradient (min/%B) 0/95 5/95 20/57 25/57 30/95 40/95.

Molecules are shown by their SMILES.

As for `N[C@@H](Cc1cc(I)c(O)c(I)c1)C(=O)O` [3,5-DIIODO-L-TYROSINE], the LC retention time in [1] was 10.9 min; in [2], 12 min; in [3], 14.1 min; in series [4] it was 12.5 min; in series [5] it was 15.4 min; in series [6], 12.6 min. The LC retention time in [7] was 13.3 min; in [8], 15.8 min; in [9], 11.1 min; in [10], 15.8 min; in series [11], 16.1 min; in series [12] it was 16.1 min. Besides, the LC retention time in series [13] is 10.8 min; in series [14], 9.05 min.
